Columns and labels:
cells = conditions: Influenza A virus, MDCK, 48 h
[1] = Cytotoxicity against MDCK cells after 48 hrs by CellTiter96 assay; format: cell-based, Canis lupus familiaris; conditions: dog
[2] = Cytotoxicity against human 293T cells after 48 hrs by CellTiter96 assay; format: cell-based, HEK-293T

SMILES	EC50 (cells)	CC50 at 48 h [1]	CC50 at 48 h [2]
CCC(CC)O[C@@H]1C=C(C(=O)NOCc2ccccc2)C[C@H](N)[C@H]1NC(C)=O	72.4 nM	–	–
CCC(CC)O[C@@H]1C=C(C(=O)NS(=O)(=O)c2ccccc2)C[C@H](NC(=N)N)[C@H]1NC(C)=O	593 nM	–	–
CCC(CC)O[C@@H]1C=C(C(=O)O)C[C@H](N)[C@H]1NC(C)=O [OSELTAMIVIR CARBOXYLATE]	28.2 nM	–	–
CCC(CC)O[C@@H]1C=C(C(=O)NOCCCc2cc3ccccc3[nH]2)C[C@H](N)[C@H]1NC(C)=O	60.1 nM	–	–
CCC(CC)O[C@@H]1C=C(C(=O)NS(C)(=O)=O)C[C@H](NC(=N)N)[C@H]1NC(C)=O	59.1 nM	> 100000 nM	> 100000 nM
CCC(CC)O[C@@H]1C=C(C(=O)NS(=O)(=O)C(F)(F)F)C[C@H](NC(=N)N)[C@H]1NC(C)=O	484 nM	–	–
CCCCS(=O)(=O)NC(=O)C1=C[C@@H](OC(CC)CC)[C@H](NC(C)=O)[C@@H](NC(=N)N)C1	261 nM	–	–
CCCCS(=O)(=O)NC(=O)C1=C[C@@H](OC(CC)CC)[C@H](NC(C)=O)[C@@H](N)C1	1980 nM	–	–
CCC(CC)O[C@@H]1C=C(C(=O)NOCCCc2cc3ccccc3[nH]2)C[C@H](NC(=N)N)[C@H]1NC(C)=O	90.7 nM	> 100000 nM	> 100000 nM
CCC(CC)O[C@@H]1C=C(C(=O)NOCc2ccccc2)C[C@H](NC(=N)N)[C@H]1NC(C)=O	23.8 nM	–	–
CCC(CC)O[C@@H]1C=C(C(=O)NS(=O)(=O)C(F)(F)F)C[C@H](N)[C@H]1NC(C)=O	2220 nM	–	–
CCC(CC)O[C@@H]1C=C(C(=O)NOC)C[C@H](NC(=N)N)[C@H]1NC(C)=O	71.7 nM	> 100000 nM	> 100000 nM
CCC(CC)O[C@@H]1C=C(C(=O)NO)C[C@H](N)[C@H]1NC(C)=O	359 nM	–	–
CCC(CC)O[C@@H]1C=C(C(=O)NOC)C[C@H](N)[C@H]1NC(C)=O	127 nM	–	–
CCC(CC)O[C@@H]1C=C(C(=O)NS(=O)(=O)c2ccccc2)C[C@H](N)[C@H]1NC(C)=O	7490 nM	–	–
CCC(CC)O[C@@H]1C=C(C(=O)NS(C)(=O)=O)C[C@H](N)[C@H]1NC(C)=O	401 nM	–	–
